From publication PMC5608804, “Stepwise Evolution Improves Identification of Diverse Peptides Binding to a Protein Target” (Scientific Reports, 2017)

Target: T1, streptavidin (Streptomyces avidinii, UniProt P22629)
T1 construct: purchased GE Healthcare (Little Chalfont, UK)
Assay: Cy5-streptavidin binding on HotSpot discovery array, 5-mer L-peptide library
Conditions: 5-mer L-peptide library array, Cy5-streptavidin; from average of three arrays
Method in brief: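 Array of 2,476,099 5-mer peptides (19 amino acids, no cysteine) with Gly-Ser linkers, probed overnight at 4 °C with 0.5 µg/ml Cy5-streptavidin in Tris pH 7.4 buffer containing casein or BSA plus Tween-20. Cy5 fluorescence read at 635 nm; peptides selected by signal-to-background >4 across three arrays.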

T1 sequence (P22629 25-183): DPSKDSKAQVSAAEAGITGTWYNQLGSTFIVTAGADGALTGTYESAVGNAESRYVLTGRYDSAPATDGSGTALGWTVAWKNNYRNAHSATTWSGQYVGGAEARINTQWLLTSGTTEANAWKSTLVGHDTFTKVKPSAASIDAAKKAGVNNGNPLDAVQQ

Substance | S/B (signal to background ratio)
WHPQY | 53.1
RHPQW | 20.3
WFHPQ | 178.0
HQHPM | 47.3
NRHPM | 48.6
RHHPM | 53.8
HPQNE | 48.0
VSHPQ | 129.8
SSHPQ | 134.8
VHPQN | 153.6
GHHPQ | 149.8
LKHPM | 26.3
TTHPM | 29.8
HPQFS | 123.4
HPQSS | 28.2
AHPQM | 32.6
HPQFW | 53.0
APHPQ | 142.8
RHPQA | 134.8
RQHPQ | 139.3
SDHPM | 34.7
GNHPQ | 132.4
FHPQT | 34.8

Substance | S/B (signal to background ratio)
HPQMS | 20.7
RDHPQ | 132.4
WMHPQ | 194.6
LGPFH [L-amino acid 5-mer array peptide] | 51.1
YYHPQ | 190.0
AAHPQ | 123.9
RTHPM | 49.0
ETHPQ | 49.0
IAHPQ | 136.2
NMHPQ | 136.2
WHPMV | 49.4
VKHPM | 19.5
RYHPQ | 175.9
YVHPQ | 145.8
IMHPM | 35.1
EWHPM | 38.1
MAAHF [L-amino acid 5-mer array peptide] | 25.6
YHPMM | 31.1
PTHPQ | 130.7
ANHPM | 47.0
HPQQS | 19.2
RNHPQ | 136.2
NDHPM | 32.0

Substance | S/B (signal to background ratio)
SWHPQ | 171.5
FFHPQ | 192.2
WQHPM | 142.1
PWHPQ | 182.5
LHPQH | 38.5
NTHPQ | 133.1
GAHPQ | 136.7
NAHPQ | 121.9
SHHPQ | 155.1
YAHPQ | 186.2
AVHPM | 23.8
HPQIG | 31.0
ITHPM | 41.5
YHPQT | 25.8
HPQYG | 55.1
TSHPQ | 122.6
NPHPM | 40.3
RHPQY | 41.5
VHHPQ | 141.1
MIHPM | 32.1
GGHPQ | 124.2
YWHPM | 54.2
DHHPM | 32.9

Substance | S/B (signal to background ratio)
SHPQA | 137.0
KHPQF | 52.9
NYHPQ | 182.7
GVHPM | 31.6
HPMAP | 37.9
GHPQY | 40.1
PHHPQ | 140.8
VHHPM | 54.5
ILHPQ | 121.2
LSHPM | 55.5
WHHPQ | 200.9
TYHPQ | 168.9
SHPMS | 25.8
SGHPQ | 128.5
HPQTG | 28.1
FAHPQ | 186.9
HHPQQ | 45.6
HHPMF | 19.8
LPHPQ | 180.6
DHPQS | 49.1

Same assay, conditions: 5-mer L-peptide library array, Cy5-streptavidin; from the average of three arrays

Substance | S/B (signal to background ratio)
MYHPM | 89.3
AYHPM | 66.7
TVHPQ | 96.5
HVHPQ | 105.7
YSHPM | 69.2
HPQNT | 67.6
YHPQF | 105.0
LMHPM | 66.9
YHPQM | 77.9
DTHPQ | 68.3
IDHPQ | 88.2
VLHPQ | 115.6
TIHPQ | 92.6
HEHPQ | 76.5
WHPQM | 100.1
FHHPM | 95.4
FTHPM | 86.0
HGHPM | 69.3
HRHPM | 61.8
HHPQV | 71.9
IHPMA | 70.9

Substance | S/B (signal to background ratio)
YFHPM | 69.8
VAHPQ | 118.6
SHPMA | 60.4
GKHPQ | 73.5
KHPQG | 73.1
HPQFY | 70.7
HPQGF | 63.7
FMHPM | 101.3
FHPQS | 97.1
GIHPQ | 100.2
KVHPQ | 65.5
WPHPM | 95.9
QYHPM | 82.7
KGHPQ | 65.1
IRHPM | 63.6
FLHPM | 84.7
MRHPM | 60.6
FVHPM | 72.0
FNHPM | 96.1
RFHPM | 59.2

Same assay, conditions: 5-mer L-peptide library, from the average of three arrays

Substance | S/B (signal to background ratio)
NWDQV [L-amino acid 5-mer array peptide] | 4.6
HPMSR | 4.4
RHPQL | 4.6
WYHHP | 5.0
EVHPM | 5.0
HPQPQ | 4.4
HPRWM | 4.5
MVQHF [L-amino acid 5-mer array peptide] | 5.2
QHPMK | 4.4
WHPMW | 4.9
HPQKF | 4.8
RHPMR | 4.2
MHPMW | 4.3
PGWAH [L-amino acid 5-mer array peptide] | 4.8
MPWRY [L-amino acid 5-mer array peptide] | 5.0
FYNFM [L-amino acid 5-mer array peptide] | 4.7
HPRQF | 4.3

Same assay, conditions: average of three arrays, L-peptide 5-mer library

Substance | S/B (signal to background ratio)
NWDQV [L-amino acid 5-mer array peptide] | 4.6
LGPFH [L-amino acid 5-mer array peptide] | 51.1
MAAHF [L-amino acid 5-mer array peptide] | 25.6
WPPSL [L-amino acid 5-mer array peptide] | 7.7
FDGWL [L-amino acid 5-mer array peptide] | 6.7
LAKYH [L-amino acid 5-mer array peptide] | 12.2
MVQHF [L-amino acid 5-mer array peptide] | 5.2
FDKWL [L-amino acid 5-mer array peptide] | 15.9
GYWTD [L-amino acid 5-mer array peptide] | 8.4
PGWAH [L-amino acid 5-mer array peptide] | 4.8
MPWRY [L-amino acid 5-mer array peptide] | 5.0
FDSWL [L-amino acid 5-mer array peptide] | 8.0
FYNFM [L-amino acid 5-mer array peptide] | 4.7
FDTWL [L-amino acid 5-mer array peptide] | 7.3

Same assay, conditions: signal to background ratio; 5-mer L-peptide library array, Cy5-streptavidin

Substance | S/B
FLHHP | 5.9
GEHPM | 14.8
PHPMF | 10.9
HPMYY | 8.3
HPMVA | 12.1
HPMGH | 15.2
HPQDG | 15.1
HPWRF | 7.0
HPMNM | 9.1
HPMHP | 14.9
HPMYM | 8.3
HPVPP | 12.4
WPPSL [L-amino acid 5-mer array peptide] | 7.7
YHPMF | 13.4
HPQKN | 7.8
FDGWL [L-amino acid 5-mer array peptide] | 6.7
HPMAM | 6.5
KHPQY | 18.3
DHPMK | 13.3
WHPQL | 14.5
HPQHY | 11.4
LAKYH [L-amino acid 5-mer array peptide] | 12.2
ESHPM | 17.2

Substance | S/B
HPQQQ | 10.8
HPQYW | 5.7
WHPPQ | 9.3
YHPQL | 6.4
HPQYQ | 15.5
FHPMF | 14.7
FDKWL [L-amino acid 5-mer array peptide] | 15.9
WHPMK | 14.5
GYWTD [L-amino acid 5-mer array peptide] | 8.4
HPQMR | 7.1
FDSWL [L-amino acid 5-mer array peptide] | 8.0
DDHPM | 11.6
HPMGL | 9.0
HPQTQ | 5.4
HPQWA | 8.4
AHPQD | 10.2
HPMAF | 18.0
IHPMM | 6.6
QHPMY | 11.3
HPWRY | 11.4
FDTWL [L-amino acid 5-mer array peptide] | 7.3
FHPQP | 6.3
HPMPD | 5.4
